Experimental data reported in patent US11845770B2, “Ascaroside derivatives and methods of use” (California Institute of Technology, priority 2019, dated 2023).
“Also recorded” adds a separate entry of the source.

How the values were obtained:
[1] = test system: THP-1 derived macrophages; assay: Stimulation of THP-1 cells, cytokine release 72 h post stimulation; assay type: cell-based, human; conditions: 72 h post stimulation (IFN-γ + LPS); 0.1, 1, 10, 100 or 200 μM vs 0 μM
Protocol: Human immortalized monocytic THP-1 cells were maintained in phenol red free RPMI 1640 medium containing 10% (v/v) fetal bovine serum (FBS), 2 mM L-glutamine, penicillin (100 units/mL), streptomycin (100 μg/mL), amphotericin B (2.5 μg/mL), and 50 μM beta-mercaptoethanol (BME) at 37° C. with 5% (v/v) CO2. THP-1 cells were seeded in 1 mL of THP-1 medium (cell culture medium containing 10% (v/v) FBS, 2 mM L-glutamine, penicillin (100 units/mL), streptomycin (100 μg/mL), amphotericin B (2.5 μg/mL), and 50 μM BME)/well at a density of 1 million cells/mL in six-well plates. Cells were differentiated by adding 100 nM phorbol 12-myristate 13-acetate (PMA) to each well before incubating cells for 5.5 h at 37° C. with 5% (v/v) CO2. Without removing the media, different concentrations (either 0, 0.1, 1, 10, 100, or 200 μM) of 1 and 10 were added to each well. Cells were stimulated, within 30 min by adding 20 ng/mL interferon gamma (IFN-γ) and 100 ng/mL lipopolysaccharide (LPS) to each well. Following stimulation, the THP-1 cells were incubated for 72 h at 37° C. with 5% (v/v) CO2. Supernatant was collected and stored at −80° C. until use.
IL-6 release from supernatant collected at 72 hours post stimulation was measured using the AlphaLISA Human IL-6 detection kit.
TNFα release from supernatant collected at 72 hours post stimulation was measured using the AlphaLISA Human TNFα detection kit.

[2] = test system: esophageal eosinophil infiltrate; assay: Eosinophilic esophagitis model, L2-IL5 transgenic mouse sensitized/locally challenged with oxazolone; assay type: in vivo; conditions: L2-IL5 mice, OXA, Day 13; for eosinophilia of the esophagus (MBP staining, eosinophils/400× hpf): FIG. 24
Description: From the observation of increased local expression of Interleukin-5 (IL-5) in EoE, transgenic mouse with targeted IL-5 expression to the esophageal squamous epithelia using the Epstein-Barr virus ED-L2 (EBV-ED-L2) gene promoter was generated. […] Even though squamous epithelial-specific IL-5 expression alone induced a significant esophageal eosinophilia encompassing the length of the esophagus, this eosinophilia was not accompanied by the density of histopathological changes such as eosinophilic micro abscesses characteristic of EoE. However, L2-IL5 transgenic mice upon sensitization and subsequent localized topical esophageal challenge with 4-ethoxymethylene-2-phenyl-2-oxazolin-5-one (OXA), a molecule known to induce T-helper cell (Th) type 2 responses, developed key histopathological features, including epithelial hyperplasia and eosinophilic micro abscesses that erupt through the epithelium into the esophageal lumen. Immunohistochemical staining of the eosinophil secondary granule major basic protein (MBP-1) was used to assess the induced esophageal eosinophilia and eosinophil degranulation. […] However, this response was small compared to the induced eosinophilia and associated degranulation that occurred in OXA-treated L2-IL5 transgenic mice (Masterson et al. Gut. 2014, 63, 1-25, which is hereby incorporated by reference in its entirety).
Prior to the OXA sensitization and topical local challenge model of delayed contact hypersensitivity, L2-IL5 transgenic mice were intraperitoneally (IP) injected with compounds or vehicle at 8, 4, and 2 days before sensitization at Day zero (schematic timeline in FIG. 20A). Compounds are prepared by dissolving in dimethyl sulfoxide (DMSO) as master stocks. Fresh working stock compounds in water are prepared for each day of injection and 100 μL of working stock or vehicle is IP injected per mouse. On day zero of the OXA sensitization/local challenge, a 2 cm×2 cm area of abdominal skin of anaesthetized experimental animals was shaved and OXA was applied to the skin surface (150 μl of a 3% (w/v) solution of OXA in 4:1 acetone-olive oil vehicle) to initiate the sensitization phase of the protocol. Sensitized mice then received topical OXA challenges of the esophagus by gavage on protocol Day 5, 8 and 12 after OXA sensitization with 100 μL of a 1% (w/v) solution of OXA in 30% ethanol/olive oil vehicle into the proximal esophagus. In addition, compounds or vehicle were IP injected on Day 5, 8, and 12 after OXA sensitization. All mice were sacrificed, and esophagus collected for histology 24 hours following the last OXA challenge on Day 12 (FIG. 20A). Immunohistochemical staining using a rat monoclonal anti-mouse MBP-1 antibody was conducted to highlight esophageal eosinophil infiltration and localized degranulation. A quantitative assessment of the esophageal eosinophil infiltrate in each group of mice was determined across nine high powered field (hpf) of view, three distal ([…] (Prox)) regions and expressed as group mean data of the eosinophil density (ie, eosinophils/400× hpf) (FIG. 20B). In addition, the eosinophilia is recorded according to the different (epithelial, lamina propia, and muscle) cell layers of the esophagus (FIG. 20C).
of NDM-X in water (20 μL of master stock in […] of water) and 0.231 μg/L of 1 in water (22 μL of master stock in 1078 μL of water) for each injection cohort that are […], respectively. On Day zero of the OXA sensitization/local challenge, a 2 cm×2 cm area of abdominal skin of anaesthetized experimental animals was shaved and OXA was applied to the skin surface to initiate the sensitization phase of the protocol. Sensitized mice then received topical OXA challenges of the esophagus by gavage on protocol Day 5, 8 and 12 after OXA sensitization in the proximal esophagus. […]

[3] = High Dose IP (0.92 mg/kg 1; 0.77 mg/kg NDM-X), FIG. 21
[4] = Low Dose IP (0.014 mg/kg 1; 0.012 mg/kg NDM-X), FIG. 22

SMILES | fold change of IL-6 levels secreted by the THP1-derived macrophages [1] | fold change of TNFα levels secreted by the THP1-derived macrophages [1] | eosinophilia of the esophagus, dose dependence ([2]; 0.092 mg/kg Mid Dose and 0.92 mg/kg High Dose IP, FIG. 23) | eosinophilia of the esophagus (MBP-1 staining, eosinophils/400× hpf) ([2]; 0.92 mg/kg High Dose IP, FIG. 23) | eosinophilia of the esophagus (MBP-1 staining, eosinophils/400× hpf) [2, 3] | eosinophilia of the esophagus (MBP-1 staining, eosinophils/400× hpf) [2, 4] | eosinophilia of the esophagus (MBP staining, eosinophils/400× hpf) ([2]; 0.012 mg/kg Low Dose IP, listed as NDM-X) | eosinophilia of the esophagus (MBP staining, eosinophils/400× hpf) ([2]; 0.77 mg/kg High Dose IP)
C[C@H](CC/C=C/C(=O)OC(C)(C)C)O[C@@H]1O[C@@H](C)[C@H](O)C[C@H]1O [Compound 1, tert-butyl (2E,6R)-6-{[(2R,3R,5R,6S)-3,5-dihydroxy-6-methyloxan-2-yl]oxy}hept-2-enoate] | reduced these levels significantly; also recorded: even more significantly reduced | reduced these levels significantly | dose-dependently inhibited eosinophilia in the epithelial, lamina propria, and muscle cell layers of the distal, middle, and proximal regions of the esophagus | statistically significant inhibition of the eosinophilic esophagitis observed in epithelial cell layer of distal, middle, and proximal regions of the esophagus; also recorded: statistically significant inhibition of the eosinophilia observed in the lamina propria and muscle cell layers of the middle section of the esophagus; also recorded: statistically significant reduction in eosinophilia observed in all cell layers of the middle and proximal sections as well as the whole esophagus | statistically significant inhibition of eosinophilic esophagitis in the epithelial, lamina propria, and muscle layers of the distal, middle, and proximal cell layers of the esophagus; also recorded: more robust blocking of eosinophil esophagitis in the mouse model than compared to 0.77 mg/kg NDM-X High Dose | statistically significant inhibition of the eosinophilia in all cell layers of the proximal region, epithelial cell layer of the distal region, and lamina propria cell layer of the middle section of the esophagus | – | –
C[C@H](CC/C=C/C(=O)O)O[C@@H]1O[C@@H](C)[C@H](O)C[C@H]1O [ascr #7, reference compound] | significantly reduced | – | – | – | statistically significant reduction in the eosinophilia in the lamina propria and muscle cell layers of the distal, middle, and proximal regions of the esophagus | statistically significant inhibition of the eosinophilia in all cell layers of the proximal region, the muscle cell layers in all regions, and the epithelial cell layer of the distal and proximal regions | slightly better than 0.77 mg/kg High Dose of NDM-X in inhibiting the eosinophilia; also recorded: statistically significant inhibition of the eosinophilia observed in the epithelial, lamina propria, and muscle cell layers of the distal, middle, and proximal regions of the esophagus | statistically significant reduction of the eosinophilia in the epithelial and lamina propria cell layers of distal, middle, and proximal regions of the esophagus
